Assays:
Test in all cases: relative viability (nuclei count vs DMSO), 5 days (fraction); higher = more cells survive
MK-8033 + Palbociclib = compound: Cn1cc(-c2cnc3ccc4ccc(CS(=O)(=O)NCc5ccccn5)cc4c(=O)c3c2)cn1 [MK-8033] + CC(=O)c1c(C)c2cnc(Nc3ccc(N4CCNCC4)cn3)nc2n(C2CCCC2)c1=O [Palbociclib] (partner 0.5 µM)
Method in brief: (§1)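 Relative viability is defined as nuclei in treated wells over nuclei in vehicle wells. Duplicate plates were run and medians reported. Lung cancer cell lines in 1536-well plates were dosed by pin tool one day after seeding, with one drug or with a fixed anchor-drug dose plus five library-drug doses (not always all listed) in √10 steps, and nuclei were counted after 5 days.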

RU-SKI 43 + Lapatinib = compound: CC[C@@H](C)CNCC(=O)N1CCC2=C([C@@H]1COC3=CC=CC(=C3)C)C=CS2 [RU-SKI 43] + CS(=O)(=O)CCNCc1ccc(-c2ccc3ncnc(Nc4ccc(OCc5cccc(F)c5)c(Cl)c4)c3c2)o1 [Lapatinib] (partner 2 µM)
Method in brief: as §1

MK-8033 + Trametinib = compound: Cn1cc(-c2cnc3ccc4ccc(CS(=O)(=O)NCc5ccccn5)cc4c(=O)c3c2)cn1 [MK-8033] + CC(=O)Nc1cccc(-n2c(=O)n(C3CC3)c(=O)c3c(Nc4ccc(I)cc4F)n(C)c(=O)c(C)c32)c1 [Trametinib] (partner 0.02 µM)
Method in brief: as §1

MK-8033 + Crizotinib = compound: Cn1cc(-c2cnc3ccc4ccc(CS(=O)(=O)NCc5ccccn5)cc4c(=O)c3c2)cn1 [MK-8033] + C[C@@H](Oc1cc(-c2cnn(C3CCNCC3)c2)cnc1N)c1c(Cl)ccc(F)c1Cl [Crizotinib] (partner 1 µM)
Method in brief: as §1

Cell Line | relative viability (MK-8033 + Palbociclib; first compound 0.02 µM) | relative viability (MK-8033 + Palbociclib; first compound 0.06325 µM) | relative viability (MK-8033 + Palbociclib; first compound 0.2 µM) | relative viability (MK-8033 + Palbociclib; first compound 0.6325 µM) | relative viability (MK-8033 + Palbociclib; first compound 2 µM) | relative viability (RU-SKI 43 + Lapatinib; first compound 0.1 µM) | relative viability (RU-SKI 43 + Lapatinib; first compound 0.3162 µM) | relative viability (RU-SKI 43 + Lapatinib; first compound 1 µM) | relative viability (RU-SKI 43 + Lapatinib; first compound 3.162 µM) | relative viability (RU-SKI 43 + Lapatinib; first compound 10 µM) | relative viability (MK-8033 + Trametinib; first compound 0.02 µM) | relative viability (MK-8033 + Trametinib; first compound 0.06325 µM) | relative viability (MK-8033 + Trametinib; first compound 0.2 µM) | relative viability (MK-8033 + Trametinib; first compound 0.6325 µM) | relative viability (MK-8033 + Trametinib; first compound 2 µM) | relative viability (MK-8033 + Crizotinib; first compound 0.02 µM) | relative viability (MK-8033 + Crizotinib; first compound 0.06325 µM) | relative viability (MK-8033 + Crizotinib; first compound 0.2 µM) | relative viability (MK-8033 + Crizotinib; first compound 2 µM) | relative viability (MK-8033 + Crizotinib; first compound 0.6325 µM)
HCC-78 | 0.516 | 0.63 | 0.451 | 0.514 | 0.511 | 0.843 | 0.626 | 1.24 | 0.513 | 0.369 | 0.611 | 0.614 | 0.739 | 0.325 | 0.578 | 0.336 | 0.316 | 0.344 | 0.32 | –
NCI-H2170 | 0.392 | 0.345 | 0.372 | 0.388 | 0.391 | 0.259 | 0.241 | 0.292 | 0.273 | 0.256 | 0.838 | 0.92 | 0.844 | 0.922 | 0.824 | 1.08 | 1.18 | 1.05 | 1.18 | 1.18
NCI-H23 | 0.463 | 0.576 | 0.406 | – | 0.413 | 0.834 | 1.22 | 1.37 | 1.12 | 0.916 | 0.331 | 0.349 | 0.331 | – | 0.381 | 0.446 | 0.391 | 0.487 | 0.552 | 0.468
COR-L 105 | 0.429 | 0.388 | 0.394 | 0.464 | 0.418 | 0.411 | 0.344 | 0.379 | 0.376 | 0.351 | 0.514 | 0.392 | 0.427 | 0.434 | 0.356 | 0.797 | 0.696 | 0.917 | 0.802 | 0.861

Reference: the supplement of paper PMC10307832
